According to ChEMBL document CHEMBL3351663, “Discovery of acylurea isosteres of 2-acylaminothiadiazole in the azaxanthene series of glucocorticoid receptor agonists” (Bioorg Med Chem Lett, 2014):

Experiments:
Glucocorticoid receptor [1] = molecular target: T1, Glucocorticoid receptor (Homo sapiens, UniProt P04150); assay: Binding affinity to glucocorticoid receptor (unknown origin) by fluorescence polarization assay
T1 sequence (P04150 whole entry): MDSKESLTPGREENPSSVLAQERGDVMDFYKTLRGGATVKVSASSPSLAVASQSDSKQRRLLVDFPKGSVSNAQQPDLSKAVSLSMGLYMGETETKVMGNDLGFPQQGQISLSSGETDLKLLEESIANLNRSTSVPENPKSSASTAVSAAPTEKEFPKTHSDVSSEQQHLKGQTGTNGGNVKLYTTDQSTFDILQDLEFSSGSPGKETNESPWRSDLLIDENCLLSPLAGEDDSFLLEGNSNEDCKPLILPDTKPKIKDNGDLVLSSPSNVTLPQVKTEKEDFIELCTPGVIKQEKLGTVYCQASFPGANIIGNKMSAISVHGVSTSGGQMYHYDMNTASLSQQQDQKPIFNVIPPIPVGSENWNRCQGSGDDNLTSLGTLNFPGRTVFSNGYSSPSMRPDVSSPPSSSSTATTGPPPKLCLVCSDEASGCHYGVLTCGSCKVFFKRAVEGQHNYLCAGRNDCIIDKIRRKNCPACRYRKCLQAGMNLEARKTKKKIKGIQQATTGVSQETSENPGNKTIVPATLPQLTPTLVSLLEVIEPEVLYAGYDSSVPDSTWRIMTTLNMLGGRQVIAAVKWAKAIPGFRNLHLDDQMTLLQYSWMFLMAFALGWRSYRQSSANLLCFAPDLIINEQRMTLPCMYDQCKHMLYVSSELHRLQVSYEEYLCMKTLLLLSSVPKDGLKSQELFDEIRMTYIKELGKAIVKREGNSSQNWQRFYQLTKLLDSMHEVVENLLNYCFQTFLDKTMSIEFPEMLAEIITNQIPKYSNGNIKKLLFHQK

Androgen receptor = molecular target: T2, Androgen receptor (Homo sapiens, UniProt P10275); assay: Binding affinity to androgen receptor (unknown origin)
T2 sequence (P10275 whole entry): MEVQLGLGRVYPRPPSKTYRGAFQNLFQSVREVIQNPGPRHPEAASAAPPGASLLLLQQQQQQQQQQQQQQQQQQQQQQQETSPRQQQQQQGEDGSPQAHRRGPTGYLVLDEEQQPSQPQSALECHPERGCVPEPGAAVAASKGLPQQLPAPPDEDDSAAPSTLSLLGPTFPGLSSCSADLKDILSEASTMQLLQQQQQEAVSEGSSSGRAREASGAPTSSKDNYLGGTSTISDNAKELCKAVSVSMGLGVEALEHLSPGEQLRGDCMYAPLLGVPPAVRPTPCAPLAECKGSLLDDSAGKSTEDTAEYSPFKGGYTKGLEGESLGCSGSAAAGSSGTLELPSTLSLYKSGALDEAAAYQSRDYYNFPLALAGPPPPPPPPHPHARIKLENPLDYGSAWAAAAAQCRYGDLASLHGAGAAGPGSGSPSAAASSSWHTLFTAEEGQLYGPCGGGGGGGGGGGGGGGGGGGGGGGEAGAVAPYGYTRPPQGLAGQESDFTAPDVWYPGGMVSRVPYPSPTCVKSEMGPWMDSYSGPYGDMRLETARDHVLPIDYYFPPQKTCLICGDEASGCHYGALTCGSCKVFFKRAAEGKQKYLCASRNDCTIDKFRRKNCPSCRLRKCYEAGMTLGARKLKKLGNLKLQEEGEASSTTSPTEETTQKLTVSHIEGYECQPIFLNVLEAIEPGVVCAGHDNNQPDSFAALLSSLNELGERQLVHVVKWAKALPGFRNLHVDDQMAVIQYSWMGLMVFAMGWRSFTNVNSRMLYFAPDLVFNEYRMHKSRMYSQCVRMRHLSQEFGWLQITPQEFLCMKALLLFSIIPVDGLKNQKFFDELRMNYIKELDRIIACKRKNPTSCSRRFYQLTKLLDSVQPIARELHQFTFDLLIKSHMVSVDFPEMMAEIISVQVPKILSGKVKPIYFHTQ

Glucocorticoid receptor [2] = molecular target: T1, Glucocorticoid receptor; parameters: species or system Blood
Cytochrome P450 2C19 = Cytochrome P450 2C19 (Homo sapiens, UniProt P33261); assay: Inhibition of CYP2C19 (unknown origin); assay type: ADME
Sequence of Cytochrome P450 2C19 (P33261 whole entry): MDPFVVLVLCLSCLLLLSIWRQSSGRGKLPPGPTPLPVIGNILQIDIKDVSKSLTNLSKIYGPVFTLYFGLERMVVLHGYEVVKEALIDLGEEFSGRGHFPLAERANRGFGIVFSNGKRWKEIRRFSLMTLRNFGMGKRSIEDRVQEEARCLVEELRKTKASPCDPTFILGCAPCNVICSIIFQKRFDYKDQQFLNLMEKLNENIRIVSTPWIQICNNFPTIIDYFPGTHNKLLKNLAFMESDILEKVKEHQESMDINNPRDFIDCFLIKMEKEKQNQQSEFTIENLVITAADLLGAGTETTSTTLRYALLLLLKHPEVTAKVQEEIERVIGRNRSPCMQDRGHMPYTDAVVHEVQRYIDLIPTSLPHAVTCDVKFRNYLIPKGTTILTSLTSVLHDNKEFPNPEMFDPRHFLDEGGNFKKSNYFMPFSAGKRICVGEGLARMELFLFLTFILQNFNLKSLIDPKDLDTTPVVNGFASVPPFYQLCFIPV

Progesterone receptor = molecular target: T3, Progesterone receptor (Homo sapiens, UniProt P06401); assay: Binding affinity to progesterone receptor (unknown origin) by fluorescence polarization assay
T3 sequence (P06401 whole entry): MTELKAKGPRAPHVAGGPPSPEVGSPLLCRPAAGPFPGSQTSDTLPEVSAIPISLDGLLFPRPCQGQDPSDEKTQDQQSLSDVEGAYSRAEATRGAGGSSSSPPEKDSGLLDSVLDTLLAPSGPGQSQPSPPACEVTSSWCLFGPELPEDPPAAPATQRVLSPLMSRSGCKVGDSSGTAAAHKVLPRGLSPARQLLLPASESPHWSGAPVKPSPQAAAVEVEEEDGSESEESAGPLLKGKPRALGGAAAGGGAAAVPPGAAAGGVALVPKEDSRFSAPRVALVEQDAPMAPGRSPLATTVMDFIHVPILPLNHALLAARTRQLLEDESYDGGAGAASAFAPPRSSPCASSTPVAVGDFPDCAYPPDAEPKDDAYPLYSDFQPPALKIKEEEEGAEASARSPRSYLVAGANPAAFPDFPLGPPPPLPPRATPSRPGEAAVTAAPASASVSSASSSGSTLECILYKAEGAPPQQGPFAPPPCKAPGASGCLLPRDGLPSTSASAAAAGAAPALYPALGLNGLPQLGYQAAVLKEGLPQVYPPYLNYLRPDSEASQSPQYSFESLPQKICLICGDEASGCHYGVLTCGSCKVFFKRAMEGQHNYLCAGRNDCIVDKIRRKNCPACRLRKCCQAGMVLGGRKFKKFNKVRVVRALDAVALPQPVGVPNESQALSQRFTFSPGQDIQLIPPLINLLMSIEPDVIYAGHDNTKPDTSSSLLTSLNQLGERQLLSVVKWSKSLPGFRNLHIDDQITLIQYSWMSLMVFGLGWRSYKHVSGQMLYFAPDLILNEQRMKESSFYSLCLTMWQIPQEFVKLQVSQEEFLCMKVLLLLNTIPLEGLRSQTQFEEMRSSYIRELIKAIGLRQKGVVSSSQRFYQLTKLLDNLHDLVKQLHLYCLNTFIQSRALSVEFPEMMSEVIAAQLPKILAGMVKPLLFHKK

Glucocorticoid receptor [3] = molecular target: T1, Glucocorticoid receptor; assay: Agonist activity at glucocorticoid receptor in human HeLa cells assessed as NP-1 transactivation by luciferase reporter gene assay; assay type: cell-based
Liver microsome [4] = assay: Metabolic stability in human liver microsomes assessed as compound remaining
Liver = assay: Metabolic stability in mouse liver microsomes assessed as compound remaining
Glucocorticoid receptor [5] = molecular target: T1, Glucocorticoid receptor; assay: Agonist activity at glucocorticoid receptor in human A549 cells assessed as E-selectin transrepression by luciferase reporter gene assay; assay type: cell-based
Liver microsome [6] = assay: Metabolic stability in rat liver microsomes assessed as compound remaining

Compound	Ki (Glucocorticoid receptor [1]) [nM]	Ki (Androgen receptor) [nM]	EC50 (Glucocorticoid receptor [2]) [nM]	IC50 (Cytochrome P450 2C19) [nM]	Ki (Progesterone receptor) [nM]	EC50 (Glucocorticoid receptor [3]) [nM]	Stability (Liver microsome [4]) [%]	Stability (Liver) [%]	EC50 (Glucocorticoid receptor [5]) [nM]	Stability (Liver microsome [6]) [%]
CC(C)(C(=O)Nc1nncs1)[C@@H]1c2ccc(-c3ccc(C(=O)N4CCOCC4)cc3)nc2Oc2c(F)cccc21	1.6	> 50000	21.5	1300	44.9	10.8				
CC(C)(C(=O)NC(N)=O)[C@@H]1c2ccc(-c3ccc(C(=O)N4CCOCC4)cc3)nc2Oc2c(F)cccc21	2.1	> 50000	20.3	11000	52.8	5.5	83	80	1.2	90
